From PubChem BioAssay AID179 (DTP/NCI, 2004)
“And” between values parts separate entries of the source, which are not always exact repeats. Identical values can stand only once. The source made the active and inactive calls.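 Rule for the calls: active = compounds giving half or more protection of infected cells from virus-caused growth loss, again on retest; inactive = the rest.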 Where a SMILES comes first, the peptide text is derived from it.

System: CEM cells HIV-1 protection, formazan growth assay
Assay: NCI AIDS Antiviral Assay
Settings: for IC50: measured here: growth of uninfected CEM cells
How it was run: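 Soluble formazan readout of cell growth; CEM cells ± HIV-1; 5 drug concs. ≥50% protection → retest; ≥50% again = moderately active; reproducible 100% = confirmed active.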

| SMILES | EC50 | IC50 | outcome |
| --- | --- | --- | --- |
| CC(C)(C)c1ccc2c(c1)OCc1n[nH]c(n1)COc1cc(C(C)(C)C)ccc1OCCOCCO2 | > 200 µM | 7.24 µM |  |
| CC(=O)[O-].CC(=O)[O-].O=C(N/N=C/c1cc(Cl)cc(Cl)c1[OH2+])c1ccncc1.[Zn+2] |  |  | inactive |
| CSC(=S)N(C)NC(=O)c1cccc(C(=O)NN(C)C(=S)SC)n1 | > 200 µM | > 200 µM |  |
| Clc1cccc2[nH]c(-c3ccncc3)nc12 | > 200 µM | > 200 µM |  |
| CN1C(=O)N(C)C2(CCN(CC(CC3OCCO3)c3ccc(F)cc3)CC2)C1=O (configuration not stated) | > 200 µM | > 200 µM |  |
| N#CC1(OC2CCCCO2)Cc2ccccc2C1 (configuration not stated) | > 200 µM | > 200 µM |  |
| CC(C)CCCC(C)[C@H]1CCC2[C@@H]3CCC4Nc5[nH]ncc5C[C@]4(C)C3CC[C@@]21C (some centres not stated) |  |  | inactive |
| O=C(Nc1ccc(Sc2ccc(N=Nc3c(O)c(S(=O)(=O)O)cc4cc(S(=O)(=O)O)ccc34)cc2)cc1)c1ccc(N=Nc2cc(S(=O)(=O)O)c3ccccc3c2O)cc1 |  |  | inactive |
| O=C(O)c1cccc(S(=O)(=O)c2ccccc2)c1 | > 200 µM | > 200 µM |  |
| COC(=O)c1ccccc1C1CN=NC12Cc1ccc3ccccc3c1C2=O (configuration not stated) | > 200 µM | > 200 µM |  |
| Nc1cc2cccc[n+]2c2cccc(Cl)c12 | > 200 µM | 4.47 µM |  |
| COC(=O)C1=CC(NC(=O)OCc2ccccc2)C(C(=O)c2ccccc2)C[C@@H]1Sc1ccccc1 (some centres not stated) |  |  | inactive |
| COc1cccc(/C=C(/C(C)=O)C(=O)c2ccccc2)c1 |  |  | inactive |
| Clc1cccc(-c2ccc[nH]2)c1 | > 200 µM | > 200 µM |  |
| O=C(N[C@@H](CSSC[C@H](NC(=O)OCc1ccccc1)C(=O)O)C(=O)O)OCc1ccccc1 | > 200 µM | 74.1 µM |  |
| COc1ccc(C2=NNC(=O)C2(C)Br)cc1 (configuration not stated) | > 200 µM | 42.7 µM |  |
| CCOC1OCN(C)CC1(C)C (configuration not stated) | > 1450 µM | 79.4 µM |  |

| SMILES | EC50 | IC50 | outcome |
| --- | --- | --- | --- |
| COc1cc(C(=O)NC(CCN)(c2ccccc2)c2ccccc2)cc(OC)c1OC | > 200 µM | 67.6 µM |  |
| CCCCCCCC(=O)OCC1OC(n2cc(F)c(=O)[nH]c2=O)C(N)C(OC(=O)CCCCCCC)C1O (configuration not stated) | > 47.9 µM | 38.9 µM |  |
| CCC(C)C(NC(=O)C(CCC(N)=O)NC(=O)CN)C(=O)NC(Cc1ccccc1)C(=O)NC(CO)C(=O)NC(CCCN=C(N)N)C(N)=O (configuration not stated) (H-GQIFSR-NH2; configuration not given here) |  |  | inactive |
| CC(C(=O)OCc1ccccc1)N(Cc1ccccc1)Cc1ccccc1 (configuration not stated) | > 200 µM | > 200 µM |  |
| CC(=O)OCC1OC(N2C(=O)[C@@H](Oc3ccccc3)[C@H]2/C=C/c2ccccc2)C(OC(C)=O)C(OC(C)=O)C1OC(C)=O (some centres not stated) | > 16.6 µM | > 16.6 µM |  |
| CCOC(=O)/C=C/C1OC(C)(C)OC1/C=C/C(=O)OCC (configuration not stated) | > 200 µM | 27.5 µM |  |
| O=C1c2ccccc2C(=O)c2cscc21 | > 77.6 µM | 18.6 µM |  |
| Nn1c(=O)[nH]c2ncn(Cc3ccccc3)c2c1=O | > 200 µM | > 200 µM |  |
| COc1cc(OC)c(/C=C/c2ccc3ccccc3[n+]2[O-])c(OC)c1 | > 56.2 µM | > 56.2 µM |  |
| CC(c1ccccc1)n1c2ccccc2c2c(N)ncnc21 (configuration not stated) | > 200 µM | 17.8 µM |  |
| CC(Nc1ccc(Cl)cc1)c1ccncc1 (configuration not stated) | > 200 µM | 72.4 µM |  |
| O=c1[nH]c2ccccc2c(O)c1/C=N/C(=S)NC1CCCCC1 | > 200 µM | > 200 µM |  |
| CNC(=O)OCc1c(COC(=O)NC)c2n(c1C)-c1ccc(OC)cc1CCC2 | > 123 µM | 2.14 µM |  |
| O=C1c2cc(Cl)ccc2-n2cnnc2C2CSCN12 (configuration not stated) | > 200 µM | > 200 µM |  |
| COc1cc(/C=c2\sc3n(c2=O)C(c2ccc(Cl)cc2)C2=C(CCCC2C)N=3)cc(OC)c1OC (configuration not stated) | > 200 µM | > 200 µM |  |
| COc1ccc(-c2[nH]c(=O)n(C3OC(CO)C(O)C(O)C3O)c(=O)c2C#N)cc1 (configuration not stated) | > 200 µM and 186 µM | > 200 µM |  |
| O=C(Cc1ccccc1)NNc1nc(NNC(=O)c2ccncc2)nc(Nc2cccc(Cl)c2)n1 | > 200 µM | > 200 µM |  |
